For orientation: inhibition means the change of the read-out against control, counted positive when it falls.

This is an account of results in patent publication US9187518B2, “Antiangiogenic brassinosteroid compounds” (CONSEJO NACIONAL DE INVESTIGACIONES CIENTIFICAS Y TECNICAS …, priority 2011, dated 2015).

In test [1] the test system is IL-6. Briefly: IL-6 secretion in epithelial cells (ELISA). The test is classed as cell-based, human.
Test [2] deals with TNF-α. Briefly: TNF-α secretion in LPS-activated macrophages. The test is classed as cell-based. To be noted: Macrophage, read-out: inhibitory concentration 50% (IC50), TNF-α secretion.
For test [3], the system named is NF-κB p65 subunit. Briefly: NF-κB p65 nuclear translocation in LPS-stimulated J774A.1 cells (IFI). To be noted: J774A.1 induced with LPS 8 h, 40 μM (LPS only 79.4±1.2). The format is cell-based, murine. The procedure: J774A.1 cells were grown on coverslips in 24-well plates and stimulated with 100 ng/ml LPS (Sigma) in RPMI without SFB, for 8 h at 37° C.
After incubation, cells were fixed in methanol at −20° C. for 10 min, and processed for indirect immunofluorescence (IFI) with antibodies directed against the glycoprotein D (gD) of HSV-1 and/or the p65 subunit of NF-κB. After three washes with PBS, the coverslips were inverted on a drop of a 1/100 dilution of the first antibody, mouse monoclonal anti-gD and/or rabbit polyclonal anti p65 (Santa Cruz Biotechnology) and incubated for 30 min at 37° C., and then subjected to three additional washes with PBS. […]
The images obtained with a 40× magnification were imported into NIH Image J 1.34s program (designed by Wayne Rasband, NIMH, Bethesda). […] We analyzed the total and nuclear fluorescence of the individual cells and a mean fluorescence density was obtained for each. To compare the distribution of fluorescence within the cell, the results were analyzed in a spreadsheet (Excel®). The total fluorescence intensity or nuclear density was calculated as the total or nuclear average per total or nuclear area, respectively. Then, we calculated the percentage of nuclear intensity or the percentage of nuclear intensity with respect to the total intensity for each cell. […]

Test [4] concerns HCLE cells infected with HSV-1. The experiment in a line: Microarray gene expression in HCLE cells infected with HSV-1. The format is cell-based, human. As to conditions: HCLE infected with HSV-1 (m.o.i.=1), 40 μM, 6 h, vs infected untreated. The procedure: HSV-1 infected cells and LPS stimulated cells were transcriptionally analyzed by using the whole human genome microarray and whole mouse genome microarray (Agilent Technologies, Santa Clara, Calif.), corresponding to 41,000 human or mice genes and transcripts.
RNA was extracted with chloroform/isopropanol and purified from Trizol.
cDNA synthesis, amplification and labeling of cRNA was performed, following the protocol of two colors of Agilent. Cyanine: 3-CTP and 5-CTP labeled cRNA was prepared from purified RNA (Two-Color Microarray-Based Gene Expression Analysis—Quick Amp Labeling, Agilent). Labeled cRNA was purified, quantified and the efficiency of labeling determined.
After that, we proceeded with the hybridization, washing, assembling of the chips and scanning. […] The fluorescence intensity data obtained for each chip were analyzed using GeneSpring XG11 and Multi Experiment Viewer (MeV) programs. […]
We used the commercial software Agilent Feature Extraction for quality control of the scan. The software converts the scanned images produced in quantitative data for further analysis. […] On the one hand, it performs an analysis of the image to locate the grid on the chip and in it, the spots for each gene, and on the other hand, it makes an analysis of data, to define and measure information (fluorescence intensity) of each spot, for the analysis of gene expression. […]

Test [5] deals with HUVECs. The experiment in a line: Cell invasion assay (transwell, IL-6 stimulated). The format is cell-based. As to conditions: Homo sapiens, HUVEC, 100 ng/ml IL-6, 24 h, read-out: inhibition of HUVECs invasion through the filter. The procedure: HUVECs' invasion was evaluated using 24-well transwell cell culture chambers with 8 μm pore polycarbonate filter inserts. Cultured HUVECs were trypsinized and suspended in Medium 200 supplemented with LSGS at a concentration of 8×10^5 cells/ml. A total of 4×10^4 of cell suspension was applied to insert filters. We used 100 ng/ml of IL-6 to stimulate cell migration through the inserts. For that, we dispensed 600 μl of medium alone or with the stimulus in the lower chamber, which was then incubated for 24 h at 37° C. to allow cell migration. The insert was removed and migrated cells on the wells were fixed and stained with crystal violet. The wells were examined under a microscope. Migration was quantified by measuring the total stained cells in every well.

For test [6], the system named is LMM3 cells. The experiment in a line: In vivo neovascular response induced by LMM3 cells in BALB/c mice. To be noted: intradermal, 5 days. As to the method:
For the in vivo assay, 2×10^6 cells/mL were grown in 1 mL of complete medium in 6 wells plates. Compound 1 was incubated with LMM3 cells during 1 h and 6 hs. Also, a group of non-treated tumoral cells were grown and incubated. Then, all the cells from each group were washed with PBS, trypsinized and re-suspended in 0.9 ml of F12 medium without FBS.
Female BALB/c mice were randomized as follows:
• Sham N=4 • LMM3 N=4 • LMM3+Compound 1-1 hour treatment N=4 • LMM3+Compound 1-6 hours treatment N=4
Then, inoculation of 2×10^5 cells/0.1 mL was done intradermically in the mouse flanks. After 5 days the animals were sacrificed and photographs of the inoculation site were taken.
The vessels density was quantified in each animal and the results were analized by ANOVA followed by the Tukey test. Results were expressed as the median of vessels density (vessels/mm^2+/−ES).

Turning to `CC[C@@H](C(C)C)[C@H](O)[C@@H](O)[C@@H](C)[C@H]1CC[C@H]2[C@@H]3CCC4=CC(=O)CC[C@]4(C)[C@H]3CC[C@]12C` [Compound 1, (22S,23S)-22,23-dihydroxystigmast-4-en-3-one], the IL-6 release entry was “did not elicit any change” in test [1] (HSV-1 infected HCLE cells, 40 μM, 24 h, vs infected control); “did not elicit any change” in test [1] (HSV-1 infected IOBA-NHC cells, 40 μM, 24 h, vs infected control); “did not induce IL-6 release by itself” in test [1] (uninfected treated cells, compound alone). Further, the IC50 in test [2] is 7 µM. Besides, the “percentage of cells positive for NF-κB translocation to the nucleus” value in test [3] came to 87.9±0.2%. Besides, the “expression of IL-1α, IL-8 and CXCL-2” value in test [4] is “overexpression”. Also, the “expression of macrophage colony stimulating factor (CSF-2)” value in test [4] was “overexpression”. Moreover, the inhibition at 10 µM in test [5] (10 μM) worked out at 18.4%. Also, the inhibition at 20 µM in test [5] (20 μM) worked out at 26.1%. For the same compound, in test [5] (40 μM), the inhibition at 40 µM was determined as 67.5%. For the same compound, the “angiogenic response induced by LMM3 cells (vessel density)” value in test [6] (LMM3 cells pre-incubated with 0.025 μg/μl during 1 h) and in test [6] (LMM3 cells pre-incubated with 0.025 μg/μl during 6 h) was “significantly reduced” in each case.
